Data as given in patent US20260035364A1, “BICYCLIC TETRAHYDROTHIAZEPINE DERIVATIVES” (Hoffmann-La Roche Inc., priority 2022, published 2026).

How the values were obtained:
DGKzeta = DGKzeta (Homo sapiens, UniProt Q13574); assay: In vitro DGK inhibition assay (ADP-Glo, liposomes), DGKzeta; type: biochemical; parameters: hDGKzeta(1-928)-N-His; His (N); made in house; host or cells: Sf21 insect cells (baculovirus); conditions: 2 nM DGK ζ, 50 μM ATP, 125 uM DLG in liposomes, 1 hour reaction
Procedure: (§1) DGK α and ζ kinases use ATP to phosphorylate the substrate 1,2-dilauroyl-sn-glycerol (DLG, incorporated in the liposomes). ATP is converted to ADP as a result of this enzymatic reaction. After the kinase reaction, an ATP-depletion reagent is added to terminate the kinase reaction and deplete any remaining ATP, leaving only ADP. Second, a detection reagent is added to simultaneously convert ADP to ATP and allow the newly synthesized ATP to be converted to light using a coupled luciferase/luciferin reaction.
(§2) Purification of both enzymes was performed as previously described by Takahashi et al., PeerJ, 2018 (Takahashi, D.; Sakane, F. Expression and purification of human diacylglycerol kinase alpha from baculovirus-infected insect cells for structural studies. PeerJ 2018, 6, No. e5449).
(§3) A concentrated liposome solution was prepared in assay buffer without DTT and BSA: 2 mM of DLG in 21 mM of total liposome (2 mM DLG/8 mM PS/11 mM PC). The reaction mixtures contain the assay buffer with a final DLG concentration of 125 uM ATP concentrations of 25 μM (for DGKA assay) or 50 μM (for DGKZ assay). The reactions were started by addition of DGK a and (kinases at 4 nM and 2 nM final concentrations, respectively. After 1 hour reaction, the amount of ADP formed was detected with the ADP-Glo kinase assay (Promega) according to the manufacturer instructions. Compounds were added in 11-points dose response, starting at […], 1:3 dilutions, with a final DMSO concentration of 2%. The multidrop combi was used as a liquid handler and luminescence was read with 0.5 s by the envision reader (PE).

DGKalpha = DGKalpha (Homo sapiens, UniProt P23743); assay: In vitro DGK inhibition assay (ADP-Glo, liposomes), DGKalpha; type: biochemical; parameters: hDGKalpha(1-735)-N-His; His (N); made in house; host or cells: Sf21 insect cells (baculovirus); conditions: 4 nM DGK α, 25 μM ATP, 125 uM DLG in liposomes, 1 hour reaction
Procedure: as §1
as §2, with “Full length DGKA and Z were expressed in Sf21 insect cells by infecting the cells with the baculovirus stock at MOI of 2. Purification” for “Purification”
as §3

primary human T-cells = assay: T-cell proliferation assay (CellTiter-Glo); type: cell-based; conditions: Homo sapiens, T-cell, 120 h, CD3 condition; for Emax: 5 days, 20 μM reference compound A1 = 100%, read-out: Emax proliferation (% activation); for EC50: proliferation after 5 days, CellTiter-Glo, read-out: Tcell Proliferation CD3 EC50
Procedure: Expanded primary human T-cells are thawed and cultured in RPMI 1640 (Gibco, #61870-010)+5% human serum (HS, Sigma, #H3667)+1 mM Sodium Pyruvate (Gibco, #11360-039)+50 μM 2-mercaptoethanol (Gibco, #31350-010) and 1× Pen-Strep (Life Technologies, #15140122) medium at density of 2 Mio/ml for 3 hours in 5% CO2, 37° C. and 95% humidity. For coating of plates, PBS++ only or PBS++ with CD3 antibody (concentration depending on donor and determined by CD3 titrations) is added 100 μl/well to Poly-D Lysine coated 96-well plates. Plates are sealed and incubated at room temperature for 3 hours on a table-top rocking platform. After incubation, plates are washed once with PBS−− and filled with 40 μl/well culture medium only. Compounds are then added (see next section) to medium only plates. After 3 hours of culturing the T-cells, cells are filtered through a cell strainer (Miltenyi Biotech, #130-041-407), counted again and concentration is adjusted to 1.25 Mio/ml.
Cells are then seeded 80 μl/well to the 40 µl/well including dispensed compounds according to plate layout. By adding cells, compounds are further diluted 1:3, and resulting in 100k cells/120 µl/well. After 48 hours 40 μl of supernatant is collected carefully from the top while not disturbing the cells. Cells are assessed for proliferation 5 days later by measuring […] using CellTiterGlo (Promega).
Compounds were added in a 5 or 6 pt dose response with the Tecan D300e Digital Dispenser, all conditions 3 times more concentrated than the end-concentration, since cells are added afterwards (80p1 cells to 40p1 prepared medium with treatment). The DR was starting at 20 μM or 10 μM final top concentration and a dilution factor of 3.333. The positive control was the reference compound A1 that was added in a dose response as well, additionally to 3 wells of only 20 μM representing the positive stimulator control. All wells were normalized with DMSO to a final concentration of 0.6% (0.2% end-concentration).
After 5 days, for detection of ATP which is directly proportional to the number of cells present per well, the CellTiter-Glo® 2.0 Reagent is used. After visual control for toxicity or precipitations of the tested compounds, the plates are equilibrated to room temperature for 45 minutes. CellTiter-Glo® 2.0 Reagent is equilibrated to room temperature as well. After equilibration, an equal amount of CellTiter-Glo reagent is added to the cells (80 µl/well) with an electronic multichannel pipette. Plates are placed on a rocking platform for 15 minutes at room temperature. After incubation, the bottom of the plates is sealed with backing tape. Luminescence is measured with PHERAstar FSX (interval time 0.5 sec, gain 3000, focal height 15 mm) and exported as CSV file for analysis in Genedata screener.
Calculations and Data Reporting CD3 and PBS plates were analysed separately in Genedata Screener using Roche Normalization PCT_POS_CTRL with DMSO set as Neutral Control and 20 μM of the reference compound A1 set as Stimulator Control/100%.
For CD3 conditions EC50 and Emax of the fitted sigmoidal curve were reported. If no curve could be fitted, the EC50 was reported as blank field and the Emax was based on individual data points. […] Compounds which activate unstimulated cells (see IL2 measurements) or compounds which negatively affected viability were flagged.

DGKzeta, sequence (Q13574 whole entry): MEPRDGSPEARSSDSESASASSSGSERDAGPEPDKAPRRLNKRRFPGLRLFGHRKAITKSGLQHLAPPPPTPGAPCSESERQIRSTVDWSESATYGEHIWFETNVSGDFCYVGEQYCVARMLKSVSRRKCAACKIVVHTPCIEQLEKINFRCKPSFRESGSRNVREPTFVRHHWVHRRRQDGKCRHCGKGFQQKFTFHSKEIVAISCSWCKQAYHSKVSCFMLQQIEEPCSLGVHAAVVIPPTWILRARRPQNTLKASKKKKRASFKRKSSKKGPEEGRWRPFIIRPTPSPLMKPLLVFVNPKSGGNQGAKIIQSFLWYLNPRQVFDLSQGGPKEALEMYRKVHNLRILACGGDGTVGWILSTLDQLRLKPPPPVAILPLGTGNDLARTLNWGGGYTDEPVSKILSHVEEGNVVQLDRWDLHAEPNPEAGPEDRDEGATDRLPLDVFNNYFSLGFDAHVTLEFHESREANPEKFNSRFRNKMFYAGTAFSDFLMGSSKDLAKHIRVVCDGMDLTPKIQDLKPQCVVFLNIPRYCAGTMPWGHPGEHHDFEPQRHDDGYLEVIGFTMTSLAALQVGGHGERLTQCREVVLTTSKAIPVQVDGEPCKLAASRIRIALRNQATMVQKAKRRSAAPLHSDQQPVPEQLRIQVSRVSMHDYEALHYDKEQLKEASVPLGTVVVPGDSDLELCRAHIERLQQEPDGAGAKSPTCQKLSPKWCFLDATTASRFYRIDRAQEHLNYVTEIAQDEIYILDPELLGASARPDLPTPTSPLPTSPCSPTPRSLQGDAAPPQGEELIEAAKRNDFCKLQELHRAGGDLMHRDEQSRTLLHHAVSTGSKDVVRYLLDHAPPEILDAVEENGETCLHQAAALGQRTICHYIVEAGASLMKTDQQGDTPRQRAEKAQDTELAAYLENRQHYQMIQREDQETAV
DGKalpha, sequence (P23743 whole entry): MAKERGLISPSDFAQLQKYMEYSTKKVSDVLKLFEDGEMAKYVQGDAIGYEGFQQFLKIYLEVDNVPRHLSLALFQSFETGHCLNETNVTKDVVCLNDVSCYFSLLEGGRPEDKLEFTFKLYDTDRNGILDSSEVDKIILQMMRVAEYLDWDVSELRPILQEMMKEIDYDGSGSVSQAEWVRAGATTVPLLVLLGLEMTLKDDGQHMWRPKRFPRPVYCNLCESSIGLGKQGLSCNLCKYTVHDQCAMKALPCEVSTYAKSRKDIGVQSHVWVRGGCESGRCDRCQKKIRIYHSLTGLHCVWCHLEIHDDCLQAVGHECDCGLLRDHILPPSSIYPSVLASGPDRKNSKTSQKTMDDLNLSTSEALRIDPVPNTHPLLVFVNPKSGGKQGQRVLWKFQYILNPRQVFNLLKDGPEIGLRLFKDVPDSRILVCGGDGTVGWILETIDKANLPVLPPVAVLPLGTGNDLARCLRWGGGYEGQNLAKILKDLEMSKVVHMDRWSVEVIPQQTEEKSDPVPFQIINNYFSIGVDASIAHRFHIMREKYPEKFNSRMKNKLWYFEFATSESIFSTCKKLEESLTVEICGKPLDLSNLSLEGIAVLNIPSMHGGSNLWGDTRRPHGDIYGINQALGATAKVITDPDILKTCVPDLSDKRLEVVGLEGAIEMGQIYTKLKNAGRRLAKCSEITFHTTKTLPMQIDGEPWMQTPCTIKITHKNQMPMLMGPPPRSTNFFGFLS

Structure (SMILES) | IC50 (DGKzeta) | IC50 (DGKalpha) | Emax (primary human T-cells) | EC50 (primary human T-cells)
CC(C)(c1nnc(-c2cc3c(cc2F)S(=O)(=O)C[C@H](N)C(=O)N3Cc2ccc(Oc3ccccc3)cc2)o1)S(C)(=O)=O [Example 27, (3R)-3-amino-8-fluoro-7-[5-(1-methyl-1-methylsulfonyl-ethyl)-1,3,4-oxadiazol-2-yl]-1,1-dioxo-5-[(4-phenoxyphenyl)methyl]-2,3-dihydro-1λ6,5-benzothiazepin-4-one] | 657 nM | 483 nM | 136% | 863 nM
CC(C)(c1nc(-c2cc3c(cc2F)S(=O)(=O)C[C@H](N)C(=O)N3Cc2ccc(Oc3ccccc3)nc2)no1)S(C)(=O)=O [Example 48, (3R)-3-amino-8-fluoro-7-[5-(1-methyl-1l-methylsulfonyl-ethyl)-1,2,4-oxadiazol-3-yl]-1,1-dioxo-5-[(6-phenoxy-3-pyridyl)methyl]-2,3-dihydro-1 λ6,5-benzothiazepin-4-one] | 630 nM | 1960 nM | 252% | 296 nM
CC(C)(c1nc(-c2cc3c(cc2F)S(=O)(=O)C[C@H](N)C(=O)N3Cc2ccc(-c3noc(C4CC4)n3)cc2)no1)S(C)(=O)=O [Example 45, (3R)-3-amino-5-[[4-(5-cyclopropyl-1,2,4-oxadiazol-3-yl)phenyl]methyl]-8-fluoro-7-[5-(1-methyl-1-methylsulfonyl-ethyl)-1,2,4-oxadiazol-3-yl]-1,1-dioxo-2,3-dihydro-1λ6,5-benzothiazepin-4-one] | 98 nM | 818 nM | 260% | 235 nM
CC(C)(c1nnc(-c2ccc3c(c2)N(Cc2ccc(OC(F)(F)C(F)F)cc2)C(=O)[C@@H](N)CS3(=O)=O)o1)S(C)(=O)=O [Example 3, (3R)-3-amino-7-[5-(1-methyl-1-methylsulfonyl-ethyl)-1,3,4-oxadiazol-2-yl]-1,1-dioxo-5-[[4-(1,1,2,2-tetrafluoroethoxy)phenyl]methyl]-2,3-dihydro-126,5-benzothiazepin-4-one] | 978 nM | 1730 nM | 66% | 5070 nM
COc1ccc(-c2ccc(CN3C(=O)[C@@H](N)CS(=O)(=O)c4cc(F)c(-c5nnc(C(C)(C)S(C)(=O)=O)o5)cc43)cc2)cc1 [Example 29, (3R)-3-amino-8-fluoro-5-[[4-(4-methoxyphenyl)phenyl]methyl]-7-[5-(1-methyl-1-methylsulfonyl-ethyl)-1,3,4-oxadiazol-2-yl]-1,1-dioxo-2,3-dihydro-1λ6,5-benzothiazepin-4-one] | 251 nM | 534 nM | 108% | 55 nM
COc1ccc(-c2ccc(CN3C(=O)[C@@H](N)CS(=O)(=O)c4ccc(-c5nnc(C(C)(C)S(C)(=O)=O)o5)cc43)cc2)cc1 [Example 21, (3R)-3-amino-5-[[4-(4-methoxyphenyl)phenyl]methyl]-7-[5-(1-methyl-1-methylsulfonyl-ethyl)-1,3,4-oxadiazol-2-yl]-1,1-dioxo-2,3-dihydro-1λ6,5-benzothiazepin-4-one] | 1080 nM | 1270 nM | 115% | 1130 nM
CS(=O)(=O)C1(c2nnc(-c3ccc4c(c3)N(Cc3ccc(Oc5ccccc5)cc3)C(=O)[C@@H](N)CS4(=O)=O)o2)CC1 [Example 66, (3R)-3-amino-7-[5-(1-methylsulfonylcyclopropyl)-1,3,4-oxadiazol-2-yl]-1,1-dioxo-5-[(4-phenoxyphenyl)methyl]-2,3-dihydro-1λ6,5-benzothiazepin-4-one] | 1160 nM | 10700 nM | 144% | 2170 nM
CC(C)(c1nnc(-c2ccc3c(c2)N(Cc2ccc(Oc4cccc(Br)c4)cc2)C(=O)[C@@H](N)CS3(=O)=O)o1)S(C)(=O)=O [Example 60, (3R)-3-amino-5-[[4-(3-bromophenoxy)phenyl]methyl]-7-[5-(1-methyl-1-methylsulfonyl-ethyl)-1,3,4-oxadiazol-2-yl]-1,1-dioxo-2,3-dihydro-1λ6,5-benzothiazepin-4-one] | 609 nM | 3800 nM | 119% | 660 nM
CC(C)(c1nnc(-c2cc3c(cc2F)S(=O)(=O)C[C@H](N)C(=O)N3Cc2ccc(OC(F)(F)C(F)F)cc2)o1)S(C)(=O)=O [Example 26, (3R)-3-amino-8-fluoro-7-[5-(1-methyl-1-methylsulfonyl-ethyl)-1,3,4-oxadiazol-2-yl]-1,1-dioxo-5-[[4-(1,1,2,2-tetrafluoroethoxy)phenyl]methyl]-2,3-dihydro-1λ6,5-benzothiazepin-4-one] | 370 nM | 447 nM | 122% | 573 nM
CC(C)(c1nnc(-c2ccc3c(c2)N(Cc2ccc(-c4noc(C(F)(F)F)n4)cc2)C(=O)[C@@H](N)CS3(=O)=O)o1)S(C)(=O)=O [Example 17, (3R)-3-amino-7-[5-(1-methyl-1-methylsulfonyl-ethyl)-1,3,4-oxadiazol-2-yl]-1,1-dioxo-5-[[4-[5-(trifluoromethyl)-1,2,4-oxadiazol-3-yl]phenyl]methyl]-2,3-dihydro-1λ6,5-benzothiazepin-4-one] | 3110 nM | 3350 nM | 112% | 1460 nM
COc1ccc(-c2ccc(CN3C(=O)[C@@H](N)CS(=O)(=O)c4ccc(-c5noc(C(C)(C)S(C)(=O)=O)n5)cc43)cc2)cc1 [Example 63, (3R)-3-amino-5-[[4-(4-methoxyphenyl)phenyl]methyl]-7-[5-(1-methyl-1-methylsulfonyl-ethyl)-1,2,4-oxadiazol-3-yl]-1,1-dioxo-2,3-dihydro-1λ6,5-benzothiazepin-4-one] | 2330 nM | 58900 nM | 98% | 92 nM
